Measured values: publication PMC8772772, “Enantioselective Synthesis and Pharmacological Evaluation of Aza-CGP37157–Lipoic Acid Hybrids for the Treatment of Alzheimer’s Disease” (Antioxidants, 2022)
Several values for one entry are separate records, joined by “and”; a condition that tells them apart may be missing. Equal entries are not always repeated.

What was measured:
[1] = DPPH reduction assay, antioxidant capacity; conditions: DPPH 100 µM, 30 min, mean ± SEM; for DPPH Scavenging at 100 µM, %: compound 100 µM; for DPPH Scavenging at 1mM, %: compound 1 mM
Experimental: Antioxidant capacity was evaluated by using described procedure slightly modified. Compounds (0.1 and 1 mM, final concentration) were diluted in assay media (EtOH/H2O, 70:30) and mixed with 100 μL of DPPH (SigmaAldrich, D9132, Madrid, Spain) solution (100 μM final concentration) in a clear 96-multiwell plate. Final solution was kept in dark for 30 min, and absorbance of DPPH was measured in a SpectroStar Nano plate-reader (BMG Labtech, Ortenberg, Germany) in duplicate at […]. All experiments included a blank (assay media), control (DPPH 100 μM) and a positive control (ascorbic acid, 100 μM). Data were evaluated as % absorbance (Abs) reduction of control after subtracting blank absorbance. % DPPH reduction = [100 − ((Abssample − Absblank) × 100]/Abscontrol
Initially, we evaluated the free-radical-scavenging capacity of derivatives 7a–d in the DPPH assay, based on the capacity of the tested derivatives to react with the 2,2-diphenyl-1-picrylhydracil radical to generate a non-radical derivate. Hybrid derivatives 7a–d were evaluated at two different concentrations (0.1 and 1 mM), considering the activities of previously reported racemic derivatives. […] Ascorbic acid was used as a positive control, and CGP37157, rac-3a and (rac,R)-3b were included as references. […] Those results are similar to those obtained for racemic mixtures 3a and 3b and a mixture of (S,R)-7b and (R,R)-7d obtained from rac-3 and R-lipoic acid.

[2] = Cytotoxicity in SH-SY5Y cell line (MTT); format: cell-based; conditions: human; SH-SY5Y, 10, 30 and 100 μM, 24 h, MTT; read-out: CC50
Experimental: SH-SY5Y human neuroblastoma cells were seeded in 96-well clear multi-well plates (6 × 10^4 cells/well). Cells were treated with increasing concentrations of compounds (10, 30 and 100 μM) for 24 h. Thereafter, viability was assessed by the MTT method. Cytotoxic concentration to observe 50% mortality (CC50) values for compounds were interpolated from dose–response curves represented as percentage of cell death vs. concentration of compound, fitted by non-linear regression and data interpolated to value 50.
(§1) The tetrazolium ring of MTT can be cleaved by active dehydrogenases to produce a formazan precipitate. At the end of the experiments, MTT (SigmaAldrich, M2003) stock solution was added to each well to achieve a final concentration of 0.5 mg/mL. Cells were incubated for 2 h. Thereafter, culture media was removed, and DMSO was added to each well to dissolve the formazan precipitate. Finally, absorbance was measured in a microplate reader (SPECTROstar nano, BMG Labtech) at 570 nm. Absorbance obtained in basal conditions was considered as 100% cell viability.
In order to evaluate the potential pharmacological profile of new compounds, we first tested the potential neurotoxicity in the neuroblastoma SHSY5Y cell line. Toxicity was evaluated at increasing concentrations (10, 30 and 100 μM), and toxicity was measured as MTT reduction capability. CC50 values were calculated by non-linear regression of curves % survival vs. concentration (Supplementary Materials Figure S2). CGP37157 and previously studied racemic derivatives rac-3a and (rac,R)-3b were included as reference compounds. As previously described, LA is a non-neurotoxic compound at the concentrations texted.

[3] = test system: BV2 microglial cells; assay: Nitrite production reduction in LPS-stimulated BV2 microglial cells (Griess); format: cell-based, mouse; conditions: BV2 + LPS, 0.3–30 µM
Experimental: BV2 microglial cells were seeded at 2 × 10^4 cells/well and treated with compounds at increasing concentrations during 24 h in complete culture media. Then, treatments were removed, and BV2 cells were co-incubated with compounds and LPS (100 ng/mL) (O127:B8, SigmaAldrich, L3129) for additional 18 h in culture media supplemented with 1% FBS. Each plate included non-treated cells as basal nitrite production. Thereafter, nitrite production was determined by using the modified Griess assay. In brief, samples (150 μL) were mixed with DAPSONE (75 μL) (SigmaAldrich, A74807) and NEDA (75 μL) (SigmaAldrich, 33461), and the mixture was incubated at room temperature for 5 min. Light absorption was measured at 550 nm in a microplate reader (SPECTROstar nano, BMG Labtech). Basal nitrite production was referred to as 100% of nitrite production, and all data were normalized to the basal condition. Concentration needed to reduce nitrite production to 50% was calculated from graphical representation of percentage of nitrite production vs. compound concentration, and data were fitted by non-linear regression and interpolated to 50%.
Chronic neuroinflammation is considered a key pathological event in the early stages of AD development. Among immune cells present at CNS, microglia is related to host defense and tissue repair. Nonetheless, chronic neuroinflammation induced by an adverse environment of protein aggregates and exacerbated OS induces a neurotoxic activity of microglia that, finally, leads to neuronal death. […] To this end, we selected the BV2 microglial cell model stimulated by lipopolysaccharide (LPS), a TLR4 agonist that activates the pro-inflammatory response. CGP37157, R- and S-LA; analogue compounds rac-3a and (rac,R)-3b; and precursor derivatives 6 were included with comparative and reference purposes. Microglial BV2 cells were treated with increasing concentrations of the corresponding compound (0.3, 3, 10 and 30 µM) for 24 h following a pre-incubation protocol. Thereafter, treatments were exchanged by a combination of the corresponding compound at desired concentration and LPS (100 ng/mL) during 18 h. At the end of this period, nitrite production was evaluated by the Griess method as an indirect measurement of iNOS enzyme expression and BV2 activation.

[4] = test system: SH-SY5Y neuroblastoma cells; assay: Neuroprotection against rotenone/oligomycin A oxidative stress in SH-SY5Y cells (MTT); format: cell-based, human; conditions: compound 1 μM 24 h, then compound + R/O (30/10 μM) 24 h; for % Survival: basal = 100, R/O alone 53.4
Experimental: Human neuroblastoma SH-SY5Y cells were plated in 96-well clear multi-well plates (6 × 10^4 cells/well). The potential neuroprotective activity of compounds against OS was evaluated using the rotenone (30 μM) (SigmaAldrich, R8875) and oligomycin A (10 μM) (SigmaAldrich, 75351) (R/O) toxic mixture. Neuroprotection activity against Tau hyperphosphorylation was evaluated by using the okadaic acid (20 nM) model. Cells were pre-incubated with each compound (1 µM) for 24 h, and then treatments were removed and cells were incubated with compounds (1 µM) in the presence the corresponding toxic for additional 24 h. At the end of the experiments, viability was determined by the MTT method. Data were normalized from cell death induced by the toxic stimuli (considered as 100% cell death). Then, the protection percentages were calculated by subtracting from the death induced by toxic stimuli, the death in the presence of the compound.
as §1
Thus, we selected a pre-incubation protocol to evaluate their potential neuroprotective capacity based on the NRF2-induction activity and direct antioxidant effect. Compound pre-incubation would induce the expression of antioxidant enzymes regulated by the phase II antioxidant response, thus promoting cells’ survival. The co-incubation period would also evaluate their capacity to trap free radicals produced by intoxicated mitochondria. SH-SY5Y neuroblastoma cells were treated with compounds (1 µM) during 24 h, and then cells were co-incubated with the corresponding compound at the same concentration and the R/O combination (30/10 µM) for additional 24 h. Melatonin, a well-known antioxidant natural neurohormone, was included as a positive control (1 µM). Previously reported racemic derivatives (rac-3a and (rac,R)-3b) and their precursors ((±)-6, R-6 and S-6) were included for comparative purposes at the same concentration.

Row | Compound | DPPH Scavenging at 100 µM, % [1] | DPPH Scavenging at 1mM, % [1] | CC50 at 24 h [2] | anti-inflammatory activity (nitrite production) at the evaluated concentrations [3] | % Protection [4] | % Survival [4]
1 | O=C1CN(CCOC(=O)CCCC[C@@H]2CCSS2)[C@@H](c2ccccc2Cl)c2cc(Cl)ccc2N1 [(R,R)-7d, 2-((R)-7-Chloro-5-(2-chlorophenyl)-2-oxo-1,2,3,5-tetrahydro-4H-benzo[e][1,4]diazepin-4-yl)ethyl 5-((R)-1,2-dithiolan-3-yl)pentanoate] | 8.66 ± 3.0% | 23.3 ± 3.5% | > 100 µM | no significant activity | 50.7% | 77.6 ± 4.4%
2 | O=C1CN(CCOC(=O)CCCC[C@@H]2CCSS2)[C@H](c2ccccc2Cl)c2cc(Cl)ccc2N1 [(R,S)-7c, 2-((S)-7-Chloro-5-(2-chlorophenyl)-2-oxo-1,2,3,5-tetrahydro-4H-benzo[e][1,4]diazepin-4-yl)ethyl 5-((R)-1,2-dithiolan-3-yl)pentanoate] | 13.6 ± 3.8% | 35.9% and 35.9 ± 1.9% | > 100 µM | no significant activity | 47.2% | 76.1 ± 2.9%
3 | O=C1CN(CCOC(=O)CCCC[C@H]2CCSS2)[C@@H](c2ccccc2Cl)c2cc(Cl)ccc2N1 [(S,R)-7b, 2-((R)-7-Chloro-5-(2-chlorophenyl)-2-oxo-1,2,3,5-tetrahydro-4H-benzo[e][1,4]diazepin-4-yl)ethyl 5-((S)-1,2-dithiolan-3-yl)pentanoate] | 8.46 ± 3.8% | 32.0 ± 1.7% | > 100 µM |  | 61.1% | 81.0 ± 4.7%
4 | O=C1CN(CCOC(=O)CCCC[C@H]2CCSS2)[C@H](c2ccccc2Cl)c2cc(Cl)ccc2N1 [(S,S)-7a, 2-((S)-7-Chloro-5-(2-chlorophenyl)-2-oxo-1,2,3,5-tetrahydro-4H-benzo[e][1,4]diazepin-4-yl)ethyl 5-((S)-1,2-dithiolan-3-yl)pentanoate] | 10.9 ± 3.5% | 30.3 ± 1.6% | > 100 µM | no significant activity | 43.4% | 74.8 ± 3.2%
